# Measured values taken from US4071411A, “Antitumor antibiotics aclacinomycins A and B [RD-9187A]” (priority 1974, dated 1978).
# Where two headings read alike, the source gives them in different places.
# Experiments:
# Sarcoma 180 = experiment: growth of Sarcoma 180 in mice; format: in vivo
# ascitic hepatoma AH44 = experiment: survival of Donryu rats grafted with ascitic hepatoma AH44; format: in vivo; conditions: 2 mg./kg./day i.p., 10 consecutive days; control average survival 14.5 days
# [1] = in vivo
# hepatomas = hepatomas in rats (summary in words); format: in vivo
# [2] = system: lymphoma 6C3HED/OG, ascitic type; experiment: ascitic lymphoma 6C3HED/OG in CH3/He mice; format: in vivo; conditions: for T/C (Survival ratio: Tested/control) / 62 day survivors / MST (Mean survival time): 10 days; for 62 day survivors: control 0/3; for MST (Mean survival time): control 20.5
# [3] = system: lymphoma 6C3HED/OG, solid type; experiment: growth of solid lymphoma 6C3HED/OG in CH3/He mice; format: in vivo; conditions: for Inhibition / 21 day survivors / Tumor weight/Body weight / Tumor weight: 10 days; for 21 day survivors: control 7/9; for Tumor weight/Body weight: control 29.6; for Tumor weight: control 7045
# [4] = system: P388 cells or L1210 cells; experiment: survival of BDF1 mice inoculated with P388 or L1210 cells; format: in vivo; conditions: for T/C / 30 day survivors / Mean survival time: daily for 10 days; for 30 day survivors: control 0/8; for Mean survival time: control 10.0; for survival time prolonged, rate compared with control mice: dosage range 0.5 to 5 mg./kg. per day, i.p. daily for 10 days
# Procedure: 2. […] For example, when BDF1 mice weighing 18 to 22 grams are inoculated with 1 × 10^6 cells of P388 cells or 5 × 10^5 cells of L1210 cells intraperitoneally and aclacinomycin A and B and aclacinomycin A-DNA complex are administered intraperitoneally once daily for 10 days consecutively 24 hours after the inoculation, the survival time of the mice is prolonged remarkably at the rate of over 150% in a dosage range of 0.5 to 5 mg./kg. of body weight per day compared with control mice receiving no antibiotic, as shown in the following table: […]
# Ehrlich carcinoma = experiment: growth of Ehrlich carcinoma in mice; format: in vivo; conditions: ascites and solid forms
# L1210 leukemia cells = experiment: survival of mice with L1210 leukemia, treatment days 1, 5 and 9; format: in vivo; conditions: for 30 day survivors / Mean survival time: days 1, 5 and 9; for 30 day survivors: control 0/10; for Mean survival time: control 10.4
# Source text: Mice are inoculated intraperitoneally with a suspension of L1210 leukemia cells and treated with solutions of different concentrations of aclacinomycin A and 1, 5 and 9 days following the tumor implantation.
# [5] = cardiotoxicity (general statement); conditions: in vivo
structure (smiles),measurement,setting,value
CCC1(O)CC(OC2CC(N(C)C)C(OC3CC(O)C(OC4CCC(=O)C(C)O4)C(C)O3)C(C)O2)c2c(cc3c(c2O)C(=O)c2c(O)cccc2C3=O)C1C(=O)OC (centres unmarked) [Aclacinomycin A],inhibition of growth of Sarcoma 180,Sarcoma 180,effective in inhibiting the growth
same,survival 30 days after the experiment,ascitic hepatoma AH44,all the treated rats were alive 30 days after the experiment
same,cardiotoxicity,[1],low cardiotoxicity
same,inhibition of growth of hepatomas,hepatomas,effective in inhibiting the growth
same,T/C (Survival ratio: Tested/control),[2]; 0.5 mg./kg./day i.p.,73%
same,62 day survivors,[2]; 0.5 mg./kg./day i.p.,0/3
same,MST (Mean survival time),[2]; 0.5 mg./kg./day i.p.,15.0 days
same,T/C (Survival ratio: Tested/control),[2]; 1 mg./kg./day i.p.,183%
same,62 day survivors,[2]; 1 mg./kg./day i.p.,1/3
same,MST (Mean survival time),[2]; 1 mg./kg./day i.p.,37.5 days
same,T/C (Survival ratio: Tested/control),[2]; 2 mg./kg./day i.p.,155%
same,62 day survivors,[2]; 2 mg./kg./day i.p.,0/3
same,MST (Mean survival time),[2]; 2 mg./kg./day i.p.,31.8 days
same,T/C (Survival ratio: Tested/control),[2]; 4 mg./kg./day i.p.,98%
same,62 day survivors,[2]; 4 mg./kg./day i.p.,0/3
same,MST (Mean survival time),[2]; 4 mg./kg./day i.p.,20.1 days
same,inhibition of growth of ascitic 6C3HED/OG tumor (in words),[2]; i.p. daily for 10 days,marked inhibition of the growth
same,Inhibition,[3]; 0.5 mg./kg./day i.p.,47.6%
same,21 day survivors,[3]; 0.5 mg./kg./day i.p.,3/3
same,Tumor weight/Body weight,[3]; 0.5 mg./kg./day i.p.,12.4%
same,Tumor weight,[3]; 0.5 mg./kg./day i.p.,3695 mg
same,Inhibition,[3]; 1 mg./kg./day i.p.,64.5%
same,21 day survivors,[3]; 1 mg./kg./day i.p.,3/3
same,Tumor weight/Body weight,[3]; 1 mg./kg./day i.p.,9.5%
same,Tumor weight,[3]; 1 mg./kg./day i.p.,2501 mg
same,Inhibition,[3]; 2 mg./kg./day i.p.,34.2%
same,21 day survivors,[3]; 2 mg./kg./day i.p.,3/3
same,Tumor weight/Body weight,[3]; 2 mg./kg./day i.p.,15.1%
same,Tumor weight,[3]; 2 mg./kg./day i.p.,4633 mg
same,Inhibition,[3]; 4 mg./kg./day i.p.,28.7%
same,21 day survivors,[3]; 4 mg./kg./day i.p.,0/3
same,Tumor weight/Body weight,[3]; 4 mg./kg./day i.p.,19.5%
same,Tumor weight,[3]; 4 mg./kg./day i.p.,5023 mg
same,inhibition of growth of solid 6C3HED/OG tumor (in words),[3]; i.p. daily for 10 days,marked inhibition of the growth
same,T/C,[4]; 0.5 mg./kg./day i.p.,230%
same,30 day survivors,[4]; 0.5 mg./kg./day i.p.,2/4
same,Mean survival time,[4]; 0.5 mg./kg./day i.p.,23.0 days
same,T/C,[4]; 1.0 mg./kg./day i.p.,280%
same,30 day survivors,[4]; 1.0 mg./kg./day i.p.,3/4
same,Mean survival time,[4]; 1.0 mg./kg./day i.p.,28.0 days
same,T/C,[4]; 2.0 mg./kg./day i.p.,300%
same,30 day survivors,[4]; 2.0 mg./kg./day i.p.,4/4
same,Mean survival time,[4]; 2.0 mg./kg./day i.p.,30.0 days
same,T/C,[4]; 4.0 mg./kg./day i.p.,215%
same,30 day survivors,[4]; 4.0 mg./kg./day i.p.,1/4
same,Mean survival time,[4]; 4.0 mg./kg./day i.p.,21.5 days
same,"survival time prolonged, rate compared with control mice",[4],over 150%
same,inhibition of growth of Ehrlich carcinoma,Ehrlich carcinoma,effective in inhibiting the growth
same,30 day survivors,L1210 leukemia cells; 1.5 mg/kg/day,0/5
same,Mean survival time,L1210 leukemia cells; 1.5 mg/kg/day,12.6 days
same,30 day survivors,L1210 leukemia cells; 3 mg/kg/day,2/5
same,Mean survival time,L1210 leukemia cells; 3 mg/kg/day,23.3 days
same,30 day survivors,L1210 leukemia cells; 6 mg/kg/day,2/5
same,Mean survival time,L1210 leukemia cells; 6 mg/kg/day,21.7 days
same,30 day survivors,L1210 leukemia cells; 12 mg/kg/day,0/5
same,Mean survival time,L1210 leukemia cells; 12 mg/kg/day,16.1 days
same,mean survival time of the treated mice (in words),L1210 leukemia cells; 6 and 3 mg./kg./day,increased considerably
CCC1(O)CC(OC2CC(N(C)C)C(OC3CC4OC5CC(=O)C(C)OC5OC4C(C)O3)C(C)O2)c2c(cc3c(c2O)C(=O)c2c(O)cccc2C3=O)C1C(=O)OC (centres unmarked) [Aclacinomycin B],cardiotoxicity,[5],low cardiotoxicity
same,T/C,[4]; 0.5 mg./kg./day i.p.,147%
same,30 day survivors,[4]; 0.5 mg./kg./day i.p.,0/4
same,Mean survival time,[4]; 0.5 mg./kg./day i.p.,14.7 days
same,T/C,[4]; 1.0 mg./kg./day i.p.,190%
same,30 day survivors,[4]; 1.0 mg./kg./day i.p.,1/4
same,Mean survival time,[4]; 1.0 mg./kg./day i.p.,19.0 days
same,T/C,[4]; 2.0 mg./kg./day i.p.,175%
same,30 day survivors,[4]; 2.0 mg./kg./day i.p.,0/4
same,Mean survival time,[4]; 2.0 mg./kg./day i.p.,17.5 days
same,T/C,[4]; 4.0 mg./kg./day i.p.,85%
same,30 day survivors,[4]; 4.0 mg./kg./day i.p.,0/4
same,Mean survival time,[4]; 4.0 mg./kg./day i.p.,8.5 days
same,"survival time prolonged, rate compared with control mice",[4],over 150%
